Measurements from patent US12291522B2, “Galectin-3 inhibitors” (BRISTOL-MYERS SQUIBB COMPANY, priority 2020, dated 2025).
Like-named read-outs stand apart in the source and are kept apart here.

Experiments:
[1] = molecular target: His-tagged recombinant human Gal-3 (hGal-3) (Homo sapiens, UniProt P17931); test: Gal-3 HTRF assay (His-tagged hGal-3 / B-ASF); type: binding; details: 15 nM hGal-3, 15 nM B-ASF
Experimental: ASSAY BUFFER Composition: 25 mM HEPES, 100 mM NaCl, 0.005% Tween 20, 0.05% BSA prepared in sterile water (all reagents from Sigma).
• Positive Control: 100% DMSO (1 μL)+His-tagged hGal-3 (20 μL)+B-ASF (20 μL)+Anti-His Terbium Antibody (5 μL)+Strep d2 Antibody (5 μL). • Negative Control: 100% DMSO (1 μL)+His-tagged hGal-3 (20 μL)+Anti His Terbium Antibody (5 μL)+Strep d2 Aantibody (5 μL). Stocks Preparation:
PROTOCOL: The Gal-3 assays were performed in 384 white Opti plates in three replicates at room temperature with gentle shaking at 250-300 rpmFrom the original stocks, […] working stock concentrations of His-tagged recombinant human Gal-3 (hGal-3) and that of B-ASF were prepared. From the working stock, 20 μL of hGal-3 (15 nM) and 20 μL B-ASF (15 nM) were added to the plates. In Negative Control, only hGal-3 was added. A concentration range of 50× working stocks were prepared for the compounds in 100% DMSO. Aliquots of luL of the compounds were added to the wells and pre-incubated with 20 μL hGal-3 per well for 30 minutes Then 20 μL B-ASF wereadded and incubated for another 1 hour. To detect the signal, 5 μL (final conc. of 1.0 nM) terbium labelled Anti-His antibody was added and incubated for 30 min followed by adding 5 μL (final conc. of 20 nM) Streptavidin d2 and incubation for another 1 hour. The assay signal was detected using HTRF screen protocol (Excitation wavelength=340 nm, emission wavelength=615 nm/665 nm) on Envision 2104 Multilabel Reader. Data analysed using Toolset and Curve Master. Results are reported in the experimental section (IC50 in μM).

[2] = molecular target: T1, hCRBN (NanoLuc-CRBN fusion construct in HEK-293 cells) (Homo sapiens, UniProt Q96SW2); test: CRBN BRET Target Engagement; type: cell-based; details: NanoLuc-CRBN transfected HEK-293 cells, BRET with CRBN Probe
T1 construct: expressed in transfected cells; host or cells: HEK-293
T1 sequence (Q96SW2 whole entry, the tested form may be a part): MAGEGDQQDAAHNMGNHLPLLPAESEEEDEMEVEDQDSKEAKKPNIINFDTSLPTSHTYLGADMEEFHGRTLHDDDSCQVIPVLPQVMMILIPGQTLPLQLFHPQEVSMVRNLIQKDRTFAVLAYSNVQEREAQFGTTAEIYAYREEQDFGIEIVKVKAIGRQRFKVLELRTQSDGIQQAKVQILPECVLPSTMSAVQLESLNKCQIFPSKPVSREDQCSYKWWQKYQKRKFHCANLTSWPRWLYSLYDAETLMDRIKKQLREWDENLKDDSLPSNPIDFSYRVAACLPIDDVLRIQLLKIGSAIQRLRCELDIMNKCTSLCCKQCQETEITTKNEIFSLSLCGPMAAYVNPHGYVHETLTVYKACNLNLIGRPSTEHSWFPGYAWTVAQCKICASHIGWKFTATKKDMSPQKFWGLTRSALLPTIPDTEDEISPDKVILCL
Experimental: CRBN BRET Target Engagement (hCRBN IC50 (μM))
NanoLuc-CRBN fusion construct was transfected in HEK-293 cells using FuGENE HD (Promega) according to the manufacturer's protocol. In brief, Nluc-CRBN was diluted into Transfection Carrier DNA (Promega) 1:10 (mass/mass), to which FuGENE HD was 1:3 (μg DNA:μL FuGENE HD). One part (vol) of DNA:FuGENE HD complexes were combined with 20 parts (vol) of HEK-293 cells suspended at a density of […]. Cells were incubated for ˜20 hr at 37° C./5% CO2. Following transfection, cells were washed and resuspended at 200,000 cells/mL in OptiMEM without phenol red (Gibco).
For BRET measurements, cells were seeded in a 384-well nonbinding surface plate (Corning) plate for a final count of 10,000 cells/well. Compounds were dissolved at 10 mM in dimethylsulfoxide (DMSO) and evaluated at eleven concentrations using a high concentration of […]. CRBN Probe was used for equilibrium measurements, employing a final concentration of approximately EC50-80. For live-cell measurements, 20 nM of CRBN Probe was added. For the live-cell assay conditions, the plates were incubated for 2 hours at 37° C./5% CO2. NanoBRET NanoGlo Substrate and Extracellular Nanoluc Inhibitor (Promega) were added according to manufacturer's guidelines. For lytic cell measurements, digitonin was added to the cells to a final concentration of 50 μg/mL and 20 nM of CRBN Probe was added. To measure NanoBRET in permeabilized cells, extracellular Nluc inhibitor was omitted during the detection step. For all BRET experiments, the Envision 2015 (Perkin Elmer) equipped with a BRET2 Enh mirror, BRET 647 nM/75 nM Bandwidth and BC703 460 nM/80 nM Bandwidth filters was used for readouts. Each read was integrated for 0.5 s.
To determine compound potency (IC50), BRET ratios for each dilution series was first normalized to a % Inhibition value via Equation 1, where “S” represents Sample BRET, “B” represents Background BRET, and “T” represents Total BRET. In this equation, the background control (B) consists of NanoLuc-CRBN expressing cells and no CRBN Probe. The total BRET Ratio (T) consists of NanoLuc-CRBN expressing cells, CRBN Probe, and an amount of DMSO at a concentration equivalent to that added when testing compounds.
Following normalization, the percent inhibition values are plotted as a function of compound concentration and fit to Equation 2. […]

[3] = molecular target: T2, Gal3 (Human Galectin-3) in THP-1 cells (Homo sapiens, UniProt P17931); test: ELISA Gal3 Degradation Assay in THP-1 Cells; type: cell-based; details: 48 hours, culture media Gal3 by ELISA
T2 construct: host or cells: THP-1
T2 sequence (P17931 whole entry): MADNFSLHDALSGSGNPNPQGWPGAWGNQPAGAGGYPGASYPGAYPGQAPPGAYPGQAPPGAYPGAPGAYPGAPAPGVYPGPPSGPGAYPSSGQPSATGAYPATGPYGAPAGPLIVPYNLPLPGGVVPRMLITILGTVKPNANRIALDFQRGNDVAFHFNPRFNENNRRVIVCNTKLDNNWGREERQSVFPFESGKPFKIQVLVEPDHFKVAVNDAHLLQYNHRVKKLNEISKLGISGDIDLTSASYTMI
Experimental: [formula] ELISA Gal3 Degradation Assay in THP-1 Cells
THP-1 cells (ATCC, Cat #TIB-202), a human monocyte cell line derived from leukemia were plated at 2E6 cells/mL in 200 uL/well of RPMI 1640 (ThermoFisher, Cat #11835) in 96-well plates. Cells were treated with DMSO as a control and various concentrations of compounds for 48 hours. After the treatment, the culture media were collected. The PBS washed cell pellets were lysed in Lysis Buffer (Cell Signaling, Cat #9803) supplemented with 1XProtease Inhibitor Cocktail (Cell Signaling, Cat #5872). Gal3 levels in culture media and cell lysates were quantified by ELISA assays (Human Galectin-3 DuoSet ELISA kit, R&D Systems, Cat #DY1154) according to manufacturer's instructions. The cell culture media were also used for the assessment of cellular toxicity (LDH Assay kit, R&D Systems, DY994). The IC50 (degradation concentration at 50%) values were calculated based on the cellular Gal3 protein levels using DMSO as the control.

[4] = test 1, read-out: Supernatant (IC50) test 1
[5] = test 2, read-out: Supernatant (IC50) test 2

Chain of His-tagged recombinant human Gal-3 (hGal-3) (P17931 whole entry): as above

Row | Compound | IC50 [1] [µM] | IC50 [2] [µM] | IC50 [3, 4] [µM] | IC50 [3, 5] [µM]
1 | Cc1nc([C@@H]2O[C@H](CO)[C@H](O)[C@H](n3cc(-c4cc(F)c(Cl)c(F)c4)nn3)[C@H]2OCC(=O)N[C@H]2C[C@@H](Oc3ccc(C(=O)Nc4ccc5c(c4)CN(C4CCC(=O)NC4=O)C5=O)cc3)C2)n(-c2cc(Cl)ccc2C(F)(F)F)n1 (stereo partly drawn) [Example 3, 4-(cis-3-(2-(((2S,3R,4S,5R,6R)-2-(1-(5-Chloro-2-(trifluoromethyl)phenyl)-3-methyl-1H-1,2,4-triazol-5-yl)-4-(4-(4-chloro-3,5-difluorophenyl)-1H-1,2,3-triazol-1-yl)-5-hydroxy-6-(hydroxymethyl)tetrahydro-2H-pyran-3-yl)oxy)acetamido)cyclobutoxy)-N-(2-(2,6-dioxopiperidin-3-yl)-1-oxoisoindolin-5-yl)benzamide] | 0.07 | 0.126 | < 0.01 | 0.048
2 | Cc1nc([C@@H]2O[C@H](CO)[C@H](O)[C@H](n3cc(-c4cc(F)c(Cl)c(F)c4)nn3)[C@H]2OCC(=O)N[C@H]2C[C@@H](Oc3ccc(C(=O)Nc4ccc5c(c4)CN(C4CCC(=O)NC4=O)C5=O)nc3)C2)n(-c2cc(Cl)ccc2C(F)(F)F)n1 (stereo partly drawn) [Example 4, 5-(cis-3-(2-(((2S,3R,4S,5R,6R)-2-(1-(5-Chloro-2-(trifluoromethyl)phenyl)-3-methyl-1H-1,2,4-triazol-5-yl)-4-(4-(4-chloro-3,5-difluorophenyl)-1H-1,2,3-triazol-1-yl)-5-hydroxy-6-(hydroxymethyl)tetrahydro-2H-pyran-3-yl)oxy)acetamido)cyclobutoxy)-N-(2-(2,6-dioxopiperidin-3-yl)-1-oxoisoindolin-5-yl)picolinamide] | 0.081 | 0.174 | 0.068 | 0.096
3 | Cc1nc([C@@H]2O[C@H](CO)[C@H](O)[C@H](n3cc(-c4cc(F)c(Cl)c(F)c4)nn3)[C@H]2OCC(=O)N[C@H]2C[C@@H](Oc3ccc(C(=O)Nc4ccc5c(c4)CN([C@H]4CCC(=O)NC4=O)C5=O)nc3)C2)n(-c2cc(Cl)ccc2C(F)(F)F)n1 [Example 5, 5-(cis-3-(2-(((2S,3R,4S,5R,6R)-2-(1-(5-chloro-2-(trifluoromethyl)phenyl)-3-methyl-1H-1,2,4-triazol-5-yl)-4-(4-(4-chloro-3,5-difluorophenyl)-1H-1,2,3-triazol-1-yl)-5-hydroxy-6-(hydroxymethyl)tetrahydro-2H-pyran-3-yl)oxy)acetamido)cyclobutoxy)-N-(2-((S)-2,6-dioxopiperidin-3-yl)-1-oxoisoindolin-5-yl)picolinamide] | 0.084 | 0.039 | < 0.01 | < 0.01
4 | Cc1nc([C@@H]2O[C@H](CO)[C@H](O)[C@H](n3cc(-c4cc(F)c(Cl)c(F)c4)nn3)[C@H]2OCC(=O)N[C@H]2C[C@@H](Oc3ccc(C(=O)Nc4ccc5c(c4)CN([C@@H]4CCC(=O)NC4=O)C5=O)nc3)C2)n(-c2cc(Cl)ccc2C(F)(F)F)n1 [Example 6, 5-(cis-3-(2-(((2S,3R,4S,5R,6R)-2-(1-(5-chloro-2-(trifluoromethyl)phenyl)-3-methyl-1H-1,2,4-triazol-5-yl)-4-(4-(4-chloro-3,5-difluorophenyl)-1H-1,2,3-triazol-1-yl)-5-hydroxy-6-(hydroxymethyl)tetrahydro-2H-pyran-3-yl)oxy)acetamido)cyclobutoxy)-N-(2-((R)-2,6-dioxopiperidin-3-yl)-1-oxoisoindolin-5-yl)picolinamide] | 0.074 | > 50 | 0.039 | 0.015
5 | Cc1nc([C@@H]2O[C@H](CO)[C@H](O)[C@H](n3cc(-c4cc(F)c(Cl)c(F)c4)nn3)[C@H]2OCC(=O)N2CC(Oc3ccc(C(=O)Nc4ccc5c(c4)CN(C4CCC(=O)NC4=O)C5=O)cc3)C2)n(-c2cc(Cl)ccc2C(F)(F)F)n1 (stereo partly drawn) [Example 8, 4-((1-(2-(((2S,3R,4S,5R,6R)-2-(1-(5-Chloro-2-(trifluoromethyl)phenyl)-3-methyl-1H-1,2,4-triazol-5-yl)-4-(4-(4-chloro-3,5-difluorophenyl)-1H-1,2,3-triazol-1-yl)-5-hydroxy-6-(hydroxymethyl)tetrahydro-2H-pyran-3-yl)oxy)acetyl)azetidin-3-yl)oxy)-N-(2-(2,6-dioxopiperidin-3-yl)-1-oxoisoindolin-5-yl)benzamide] | 0.048 | 1.42 | 0.281 | 0.038
6 | Cc1nc([C@@H]2O[C@H](CO)[C@H](O)[C@H](n3cc(-c4cc(F)c(Cl)c(F)c4)nn3)[C@H]2OCC(=O)N2Cc3ccc(C(=O)Nc4ccc5c(c4)CN(C4CCC(=O)NC4=O)C5=O)cc3C2)n(-c2cc(Cl)ccc2C(F)(F)F)n1 (stereo partly shown) [Example 19] | 0.051 | 0.017 | – | –
7 | Cc1nc([C@@H]2O[C@H](CO)[C@H](O)[C@H](n3cc(-c4cc(F)c(Cl)c(F)c4)nn3)[C@H]2OCC(=O)N(CCl)CCCOc2ccc(C(=O)Nc3ccc4c(c3)CN(C3CCC(=O)NC3=O)C4=O)cc2)n(-c2cc(Cl)ccc2C(F)(F)F)n1 (stereo partly shown) [Example 24] | 0.212 | 2.16 | – | –
8 | Cc1nc([C@@H]2O[C@H](CO)[C@H](O)[C@H](n3cc(-c4cc(F)c(Cl)c(F)c4)nn3)[C@H]2OCC(=O)N2CC(Oc3ccc(C(=O)Nc4ccc5c(c4)CN(C4CCC(=O)N(C)C4=O)C5=O)cc3)C2)n(-c2cc(Cl)ccc2C(F)(F)F)n1 (stereo partly shown) [Example 28] | 0.098 | 10.4 | – | –
9 | Cc1nc([C@@H]2O[C@H](CO)[C@H](O)[C@H](n3cc(-c4cc(F)c(Cl)c(F)c4)nn3)[C@H]2OCC(=O)N2CC3(CC(COc4ccc(C(=O)Nc5ccc6c(c5)CN(C5CCC(=O)NC5=O)C6=O)cc4)C3)C2)n(-c2cc(Cl)ccc2C(F)(F)F)n1 (stereo partly shown) [Example 29] | 0.16 | 0.35 | – | –
